In patent US8334382B2, “Substituted biaryl piperazinyl-pyridine analogues” (Neurogen Corporation, priority 2004, dated 2012):

molecular target: T1, human capsaicin receptor (Homo sapiens, UniProt Q8NER1); experiment: Calcium mobilization assay, determination of antagonist activity; format: cell-based; conditions: capsaicin at EC50; cells expressing human capsaicin receptor; Example 6
T1 construct: expressed in transfected cells; host or cells: HEK293, stably transfected with pBK-CMV construct
Method: A cDNA encoding full length human capsaicin receptor (SEQ ID NO:1, 2 or 3 of U.S. Pat. No. 6,482,611) is subcloned in the plasmid pBK-CMV (Stratagene, La Jolla, Calif.) for recombinant expression in mammalian cells.
Human embryonic kidney (HEK293) cells are transfected with the pBK-CMV expression construct encoding the full length human capsaicin receptor using standard methods. The transfected cells are selected for two weeks in media containing G418 (400 μg/ml) to obtain a pool of stably transfected cells. Independent clones are isolated from this pool by limiting dilution to obtain clonal stable cell lines for use in subsequent experiments.
Cells transfected with expression plasmids (as described in Example 4) and thereby expressing human capsaicin receptor are seeded and grown to 70-90% confluency in FALCON black-walled, clear-bottomed 96-well plates (#3904, BECTON-DICKINSON, Franklin Lakes, N.J.). The culture medium is emptied from the 96 well plates and FLUO-3 AM calcium sensitive dye (Molecular Probes, Eugene, Oreg.) is added to each well (dye solution: 1 mg FLUO-3 AM, 440 μL DMSO and 440 μl 20% pluronic acid in DMSO, diluted 1:250 in Krebs-Ringer HEPES (KRH) buffer (25 mM HEPES, 5 mM KCl, 0.96 mM NaH2PO4, 1 mM MgSO4, 2 mM CaCl2, 5 mM glucose, 1 mM probenecid, pH 7.4), 50 μl diluted solution per well). Plates are covered with aluminum foil and incubated at 37° C. for 1-2 h in an environment containing 5% CO2. After the incubation, the dye is emptied from the plates, and the cells are washed once with KRH buffer, and resuspended in KRH buffer.
To measure the ability of a test compound to agonize or antagonize a calcium mobilization response in cells expressing capsaicin receptors to capsaicin or other vanilloid agonist, the EC50 of the agonist capsaicin is first determined. An additional 20 μl of KRH buffer and 1 μl DMSO is added to each well of cells, prepared as described above. 100 μl capsaicin in KRH buffer is automatically transferred by the FLIPR instrument to each well. Capsaicin-induced calcium mobilization is monitored using either FLUOROSKAN ASCENT (Labsystems; Franklin, Mass.) or FLIPR (fluorometric imaging plate reader system; Molecular Devices, Sunnyvale, Calif.) instruments. Data obtained between 30 and 60 seconds after agonist application are used to generate an 8-point concentration response curve, with final capsaicin concentrations of 1 nM to 3 μM. KALEIDAGRAPH software (Synergy Software, Reading, Pa.) is used to fit the data to the equation: y=a*(1/(1+(b/x)^c)) to determine the 50% excitatory concentration (EC50) for the response. In this equation, y is the maximum fluorescence signal, x is the concentration of the agonist or antagonist (in this case, capsaicin), a is the Emax, b corresponds to the EC50 value and c is the Hill coefficient. Determination of Agonist Activity
Test compounds are dissolved in DMSO, diluted in 20 μl KRH buffer so that the final concentration of test compounds in the assay well is between 1 μM and 5 μM, and added to cells prepared as described above. The 96 well plates containing prepared cells and test compounds are incubated in the dark, at room temperature for 0.5 to 6 h. It is important that the incubation not continue beyond 6 h. Just prior to determining the fluorescence response, 100 μl capsaicin in KRH buffer at twice the EC50 concentration determined as described above is automatically added by the FLIPR instrument to each well of the 96 well plate for a final sample volume of 200 μl and a final capsaicin concentration equal to the EC50. The final concentration of test compounds in the assay wells is between 1 μM and 5 μM. […] The concentration of antagonist required to provide a 50% decrease, relative to the response observed in the presence of capsaicin and without antagonist, is the IC50 for the antagonist, and is preferably below 1 micromolar, 100 nanomolar, 10 nanomolar or 1 nanomolar.

T1 sequence (Q8NER1 whole entry): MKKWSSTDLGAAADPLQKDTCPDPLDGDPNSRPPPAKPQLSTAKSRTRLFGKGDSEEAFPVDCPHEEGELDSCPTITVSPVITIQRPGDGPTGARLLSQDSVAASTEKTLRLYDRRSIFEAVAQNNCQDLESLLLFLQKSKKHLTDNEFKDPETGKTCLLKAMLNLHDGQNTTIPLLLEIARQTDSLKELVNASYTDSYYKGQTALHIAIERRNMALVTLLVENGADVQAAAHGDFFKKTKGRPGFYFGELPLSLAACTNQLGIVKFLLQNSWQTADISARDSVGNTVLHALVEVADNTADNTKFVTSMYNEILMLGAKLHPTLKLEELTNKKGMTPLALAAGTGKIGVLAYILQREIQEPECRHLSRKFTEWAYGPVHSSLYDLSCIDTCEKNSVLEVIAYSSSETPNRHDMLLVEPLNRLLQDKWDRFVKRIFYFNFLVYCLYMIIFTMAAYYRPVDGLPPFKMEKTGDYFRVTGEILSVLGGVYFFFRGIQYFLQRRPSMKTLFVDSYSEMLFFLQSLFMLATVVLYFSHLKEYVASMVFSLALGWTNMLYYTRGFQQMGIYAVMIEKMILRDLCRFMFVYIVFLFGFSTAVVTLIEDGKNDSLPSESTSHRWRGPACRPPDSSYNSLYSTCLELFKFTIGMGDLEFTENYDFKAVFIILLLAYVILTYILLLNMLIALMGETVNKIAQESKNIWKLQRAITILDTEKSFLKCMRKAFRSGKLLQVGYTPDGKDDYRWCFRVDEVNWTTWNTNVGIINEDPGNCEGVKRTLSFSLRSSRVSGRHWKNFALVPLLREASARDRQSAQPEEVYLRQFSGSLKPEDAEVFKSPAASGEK

IC50, ≤ 1 µM:
CCOC(=O)c1cnc(N2CCN(c3cc(-c4ccc(F)c(Cl)c4)nc(N4CCCC4C)n3)[C@H](C)C2)c(Cl)c1 (stereo partly drawn) [Example 18, 5-Chloro-6-{4-[6-(3-chloro-4-fluoro-phenyl)-2-(2-methyl-pyrrolidin-l-yl)-pyrimidin-4-yl]-3-(R)-methyl-piperazin-1-yl}-nicotinic acid ethyl ester]
CC1CCCN1c1nc(-c2ccc(F)c(Cl)c2)cc(N2CCN(c3ncc(CN(C)C)cc3Cl)CC2)n1 (stereo not drawn) [Example 19, (5-Chloro-6-{4-[6-(3-chloro-4-fluoro-phenyl)-2-(2-methyl-pyrrolidin-l-yl)-pyrimidin-4-yl]-piperazin-1-yl}-pyridin-3-ylmethyl)-dimethyl-amine]
COC(=O)c1cnc(N2CCN(c3cc(-c4ccc(F)c(Cl)c4)nc(N4CCCC4C)n3)CC2)c(Cl)c1 (stereo not shown) [Example 20, 5-Chloro-6-{4-[6-(3-chloro-4-fluoro-phenyl)-2-(2-methyl-pyrrolidin-1-yl)-pyrimidin-4-yl]-piperazin-1-yl}-nicotinic acid methyl ester]
CC1CCCN1c1nc(-c2ccc(F)c(Cl)c2)cc(N2CCN(c3ncc(C(=O)O)cc3Cl)CC2)n1 (stereo not shown) [Example 21, 5-Chloro-6-{4-[6-(3-chloro-4-fluoro-phenyl)-2-(2-methyl-pyrrolidin-1-yl)-pyrimidin-4-yl]-piperazin-1-yl}-nicotinic acid]
COc1ccc([N+](=O)[O-])c(N2CCN(c3cc(-c4ccc(F)c(Cl)c4)nc(N4CCCC4C)n3)CC2)n1 (stereo not shown) [Example 22, 4-(3-Chloro-4-fluoro-phenyl)-6-[4-(6-methoxy-3-nitro-pyridin-2-yl)-piperazin-1-yl]-2-(2-methyl-pyrrolidin-1-yl)-pyrimidine]
CCCN1CCN(c2nc(-c3ccc(F)c(Cl)c3)cc(N3CCN(c4ncc(C(=O)OCC)cc4Cl)CC3)n2)CC1 [Example 23, 5-Chloro-6-{4-[6-(3-chloro-4-fluoro-phenyl)-2-(4-propyl-piperazin-l-yl)-pyrimidin-4-yl] - piperazin-1-yl}-nicotinic acid ethyl ester]
CC1CCCN1c1nc(-c2ccc(F)c(Cl)c2)cc(N2CCN(c3ncc(C(N)=O)cc3Cl)C[C@H]2C)n1 (stereo partly drawn) [Example 24, 5-Chloro-6-{4-[6-(3-chloro-4-fluoro-phenyl)-2-(2-methyl-pyrrolidin-1-yl)-pyrimidin-4-yl]-3-(R)-methyl-piperazin-l-yl}-nicotinamide]
CC1CCCN1c1nc(-c2ccc(F)cc2)cc(N2CCN(c3ncc(C(=O)O)cc3Cl)CC2)n1 (stereo not shown) [Example 25, 5-Chloro-6-{4-[6-(4-fluoro-phenyl)-2-(2-methyl-pyrrolidin-1-yl)-pyrimidin-4-yl]-piperazin-1-yl}-nicotinic acid]
CC1CCCN1c1nc(-c2ccc(F)cc2)cc(N2CCN(c3ncc(CO)cc3Cl)CC2)n1 (stereo not shown) [Example 26, (5-Chloro-6-{4-[6-(4-fluoro-phenyl)-2-(2-methyl-pyrrolidin-1-yl)-pyrimidin-4-yl]-piperazin-1-yl}-pyridin-3-yl)-methanol]
CCOC(=O)c1cnc(N2CCN(c3cc(-c4ccc(F)cc4)nc(N4CCCC4C)n3)[C@H](C)C2)c(Cl)c1 (stereo partly drawn) [Example 27, 5-Chloro-6-{4-[6-(4-fluoro-phenyl)-2-(2-methyl-pyrrolidin-1-yl)-pyrimidin-4-yl]-3-(R)-methyl-piperazin-1-yl}-nicotinic acid ethyl ester]
CCOC(=O)c1cnc(N2CCN(c3cc(-c4ccc(F)cc4)nc(N4CCCC4)n3)[C@H](C)C2)c(Cl)c1 [Example 28, 5-Chloro-6-{4-[6-(4-fluoro-phenyl)-2-pyrrolidin-1-yl-pyrimidin-4-yl]-3-(R)-methyl-piperazin-1-yl}-nicotinic acid ethyl ester]
CC1CCCN1c1nc(-c2ccc(F)cc2)cc(N2CCN(c3ncc(C(=O)O)cc3Cl)C[C@H]2C)n1 (stereo partly drawn) [Example 29, 5-Chloro-6-{4-[6-(4-fluoro-phenyl)-2-(2-methyl-pyrrolidin-1-yl)-pyrimidin-4-yl]-3-(R)-methyl-piperazin-1-yl}-nicotinic acid]
C[C@@H]1CN(c2ncc(C(=O)O)cc2Cl)CCN1c1cc(-c2ccc(F)cc2)nc(N2CCCC2)n1 [Example 30, 5-Chloro-6-{4-[6-(4-fluoro-phenyl)-2-pyrrolidin-1-yl-pyrimidin-4-yl]-3-(R)-methyl-piperazin-1-yl}-nicotinic acid]
CC1CCCN1c1nc(-c2ccc(F)cc2)cc(N2CCN(c3ncc(CO)cc3Cl)C[C@H]2C)n1 (stereo partly drawn) [Example 31, (5-Chloro-6-{4-[6-(4-fluoro-phenyl)-2-(2-methyl-pyrrolidin-1-yl)-pyrimidin-4-yl]-3-(R)-methyl-piperazin-1-yl}-pyridin-3-yl)-methanol]
C[C@@H]1CN(c2ncc(CO)cc2Cl)CCN1c1cc(-c2ccc(F)cc2)nc(N2CCCC2)n1 [Example 32, (5-Chloro-6-{4-[6-(4-fluoro-phenyl)-2-pyrrolidin-1-yl-pyrimidin-4-yl]-3-(R)-methyl-piperazin-1-yl}-pyridin-3-yl)-methanol]
CC1CCCN1c1nc(-c2ccc(F)cc2)cc(N2CCN(c3ncc(C(N)=O)cc3Cl)C[C@H]2C)n1 (stereo partly drawn) [Example 33, 5-Chloro-6-{4-[6-(4-fluoro-phenyl)-2-(2-methyl-pyrrolidin-1-yl)-pyrimidin-4-yl]-3-(R)-methyl-piperazin-1-yl}-nicotinamide]
Cc1cc(C(=O)O)cnc1N1CCN(c2cc(-c3ccc(F)cc3)nc(N3CCCC3C)n2)[C@H](C)C1 (stereo partly drawn) [Example 34, 6-{4-[6-(4-Fluoro-phenyl)-2-(2-methyl-pyrrolidin-1-yl)-pyrimidin-4-yl]-3-(R)-methyl-piperazin-1-yl}-5-methyl-nicotinic acid]
Cc1cc(C(=O)O)cnc1N1CCN(c2cc(-c3ccc(F)cc3)nc(N3CCCC3C)n2)CC1 (stereo not shown) [Example 36, 6-{4-[6-(4-Fluoro-phenyl)-2-(2-methyl-pyrrolidin-1-yl)-pyrimidin-4-yl]-piperazin-1-yl}-5-methyl-nicotinic acid]
Cc1cc(CO)cnc1N1CCN(c2cc(-c3ccc(F)cc3)nc(N3CCCC3C)n2)[C@H](C)C1 (stereo partly drawn) [Example 37, (6-{4-[6-(4-Fluoro-phenyl)-2-(2-methyl-pyrrolidin-1-yl)-pyrimidin-4-yl]-3-(R)-methyl-piperazin-1-yl}-5-methyl-pyridin-3-yl)-methanol]
Cc1cc(CO)cnc1N1CCN(c2cc(-c3ccc(F)cc3)nc(N3CCCC3C)n2)CC1 (stereo not shown) [Example 38, (6-{4-[6-(4-Fluoro-phenyl)-2-(2-methyl-pyrrolidin-1-yl)-pyrimidin-4-yl]-piperazin-1-yl}-5-methyl-pyridin-3-yl)-methanol]
CC1CCCN1c1nc(-c2ccc(F)cc2)cc(N2CCN(c3ncc(CC(=O)O)cc3Cl)CC2)n1 (stereo not shown) [Example 39, (5-Chloro-6-{4-[6-(4-fluoro-phenyl)-2-(2-methyl-pyrrolidin-1-yl)-pyrimidin-4-yl]-piperazin-1-yl}-pyridin-3-yl)-acetic acid]
CC1CCCN1c1nc(-c2ccc(F)cc2)cc(N2CCN(c3ncc(C(N)=O)cc3Cl)CC2)n1 (stereo not shown) [Example 40, 5-Chloro-6-{4-[6-(4-fluoro-phenyl)-2-(2-methyl-pyrrolidin-1-yl)-pyrimidin-4-yl]-piperazin-1-yl}-nicotinamide]
